Laboratory results taken from US6569878B1, “Substituted 4-amino-thiazol-2-yl compounds as cyclin-dependent kinase inhibitors” (Agouron Pharmaceuticals Inc., priority 1997, dated 2003).

Columns and labels:
[1] = test system: Saos-2; assay: Inhibition of cell growth, MTT assay, Saos-2; type: cell-based; settings: Homo sapiens; Saos-2, MTT assay
How it was run: (§1)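 Cells rested 4 h after plating, then exposed to graded compound concentrations in 0.5% (v/v) DMSO for four to six days (cell-type dependent) at 37° C, 5% CO2. Viability was read by MTT (0.2 mg/mL final, 4 h at 37° C), with DMSO-solubilized formazan measured at 540 nm.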

[2] = test system: U2-OS; assay: Inhibition of cell growth, MTT assay, U2-OS; type: cell-based; settings: Homo sapiens, U2OS
How it was run: as §1

[3] = biological target: T1, complex of human CDK4 and genetically truncated (1-264) cyclin D3 (Homo sapiens, UniProt P11802); assay: Inhibition of CDK4/cyclin D retinoblastoma kinase activity (D-type cyclin is truncated D3); type: biochemical; settings: superscript c: D-type cyclin is truncated D3; read-out: Ki CDK 4/D
T1 construct: made in house; host or cells: insect cells, co-infected with baculovirus
Description: Cyclin-dependent kinase activity was measured by quantifying the enzyme-catalyzed, time-dependent incorporation of radioactive phosphate from [^32P]ATP or [^33P]ATP into a protein substrate. Unless noted otherwise, assays were performed in 96-well plates in a total volume of 50 μL, in the presence of 10 mM HEPES (N-[2-hydroxyethyl]piperazine-N′-[2-ethanesulfonic acid]) (pH 7.4), 10 mM MgCl2, 25 μM adenosine triphosphate (ATP), 1 mg/mL ovalbumin, 5 μg/mL leupeptin, 1 mM dithiothreitol, 10 mM β-glycerophosphate, 0.1 mM sodium vanadate, 1 mM sodium fluoride, 2.5 mM ethylene glycol-bis(β-aminoethyl ether)-N,N,N′N′-tetraacetic acid (EGTA), 2% (v/v) dimethylsulfoxide, and 0.03-0.4 μCi [^32/33P]ATP per reaction. Reactions were initiated with enzyme, incubated at 30° C., and terminated after 20 minutes by the addition of ethylenediaminetetraacetic acid (EDTA) to 250 mM. The phosphorylated substrate was then captured on a nitrocellulose or phosphocellulose membrane using a 96-well filtration manifold, and unincorporated radioactivity was removed by repeated washing with 0.85% phosphoric acid. Radioactivity was quantified by exposing the dried membranes to a phosphorimager.
Apparent Ki values were measured by assaying enzyme activity in the presence of different inhibitor compound concentrations and subtracting the background radioactivity measured in the absence of enzyme. The kinetic parameters (kcat, Km for ATP) were measured for each enzyme under the usual assay conditions by determining the dependence of initial rates on ATP concentration. Inhibition data were fit to an equation for competitive inhibition using Kaleidagraph (Synergy Software), or were fit to an equation for competitive tight-binding inhibition using the software KineTic (BioKin, Ltd.).
A complex of human CDK4 and cyclin D3, or a complex of cyclin D1 and a fusion protein of human CDK4 and gluathione-S-transferase (GST-CDK4), or a complex of human CDK4 and genetically truncated (1-264) cyclin D3, was purified using traditional biochemical chromatographic techniques from insect cells that had been co-infected with the corresponding baculovirus expression vectors (see e.g., Meijer and Kim, “Chemical Inhibitors of Cyclin-Dependent Kinases,” Methods in Enzymol,. vol. 283 (1997), pp. 113-128.). The enzyme complex (5 or 50 nM) was assayed with 0.3-0.5 μg of purified recombinant retinoblastoma protein fragment (Rb) as a substrate. The engineered Rb fragment (residues 386-928 of the native retinoblastoma protein; 62.3 kDa) contains the majority of the phosphorylation sites found in the native 106-kDa protein, as well as a tag of six histidine residues for ease of purification. Phosphorylated Rb substrate was captured by microfiltration on a nitrocellulose membrane and quantified using a phosphorimager as described above. For measurement of tight-binding inhibitors, the enzyme complex concentration was lowered to 5 nM, and the assay duration was extended to 60 minutes, during which the time-dependence of product formation was linear.

[4] = test system: HCT116; assay: Inhibition of cell growth, MTT assay, HCT116; type: cell-based, human; settings: Homo sapiens, HCT-116
How it was run: as §1

[5] = biological target: T2, human CDK1 (cdc2) and cyclin B (Homo sapiens, UniProt P06493); assay: Inhibition of CDK1(cdc2)/cyclin B histone H1 kinase activity; type: biochemical; settings: read-out: Ki CDK 1/B
T2 construct: purchased New England Biolabs (Beverly Mass.)
How it was run: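 CDK1/cyclin B (commercial, or CDK1/GST-cyclin B1 from co-infected insect cells) phosphorylated histone H1 with 25 μM [32/33P]ATP at pH 7.4, 30° C for 20 min, 2% DMSO. Product captured on phosphocellulose and read by phosphorimager; apparent Ki from competitive or tight-binding fits, with Km for ATP determined.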

[6] = biological target: T3, CDK2/cyclin A (Homo sapiens, UniProt P24941); assay: Inhibition of CDK2/cyclin A retinoblastoma kinase activity; type: biochemical; settings: read-out: Ki CDK 2/A
T3 construct: made in house; host or cells: CDK2: insect cells (baculovirus); cyclin A: E. coli, then limited proteolysis
How it was run: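 Baculovirus-expressed CDK2 with excess proteolyzed cyclin A (or purified complex), 150 nM or 5 nM, phosphorylating an Rb fragment with 25 μM [32/33P]ATP, pH 7.4, 30° C, 20 min. Filter-captured radioactivity by phosphorimager; apparent Ki from fits to competitive or tight-binding competitive inhibition using measured ATP Km.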

[7] = biological target: T4, complex of human CDK4 and cyclin D3 (Homo sapiens, UniProt P11802); assay: Inhibition of CDK4/cyclin D retinoblastoma kinase activity (D-type cyclin is D3); type: biochemical; settings: superscript a: D-type cyclin is D3; apparent Ki; read-out: Ki CDK 4/D
T4 construct: made in house; host or cells: insect cells, co-infected with baculovirus
How it was run: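 Radiometric assay: [32P]- or [33P]ATP phosphate incorporation into Rb substrate at 30°C for 20 min, stopped with EDTA, filter-captured and phosphorimaged.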

[8] = test system: pRb phosphorylation at serine 780 in HCT-116 cells; assay: pRb immunoblotting (anti-phospho-Rb (ser780) antibody); type: cell-based, human; settings: five micromolar of each compound for 12 hours, western blot, anti-phospho-Rb (Ser 780) antibody
Description: (§2) The ability of compounds to inhibit phosphorylation of the retinoblastoma protein (pRb) was assessed by western blot analysis. An anti-Rb antibody was used to measure the conversion of hyper-phosphorylated pRb to hypo-phosphorylated pRb.
(§3) Human colon tumor cells (HCT-116 cells; 5×10^6) were plated on […] dishes and allowed to grow overnight. Five micromolar of each compound was added for 12 hours. The cells were then collected and centrifuged. The cell pellets were lysed by the addition of 100 μL lysis buffer (50 mM HEPES (pH 7.0), 250 mM NaCl, 5 mM ethylenediaminetetraacetic acid, 0.1% Nonidet P-40, 1 mM dithiothreitol, 2 mM sodium pyrophosphate, 1 mM sodium orthovanadate, 1 μg/ml aprotonin, 1 μg/ml leupeptin, 50 μg/ml phenylmethylsulfonyl fluoride). Forty micrograms of protein were separated by sodium dodecyl sulfate-polyacrylamide gel electrophoresis (SDS-PAGE) on a 6% gel. The proteins were transferred to nitrocellulose and blocked with 5% blocking buffer in Tris-buffered saline overnight. The anti-Rb antibody (Pharmingen), the anti-phospho-Rb (Ser 780) antibody (MBL), and secondary antibody were incubated for 1 hour at room temperature followed by three wash steps in 0.01% Tween-20 in Tris-buffered saline. The Rb protein was detected using chemiluminescence according to the manufacturer (Amersham).

[9] = test system: phosphorylation of the retinoblastoma protein (pRb) in HCT-116 cells; assay: pRb immunoblotting (anti-Rb antibody); type: cell-based, human; settings: five micromolar of each compound for 12 hours, western blot
Description: as §2, §3

T4 sequence (P11802 whole entry): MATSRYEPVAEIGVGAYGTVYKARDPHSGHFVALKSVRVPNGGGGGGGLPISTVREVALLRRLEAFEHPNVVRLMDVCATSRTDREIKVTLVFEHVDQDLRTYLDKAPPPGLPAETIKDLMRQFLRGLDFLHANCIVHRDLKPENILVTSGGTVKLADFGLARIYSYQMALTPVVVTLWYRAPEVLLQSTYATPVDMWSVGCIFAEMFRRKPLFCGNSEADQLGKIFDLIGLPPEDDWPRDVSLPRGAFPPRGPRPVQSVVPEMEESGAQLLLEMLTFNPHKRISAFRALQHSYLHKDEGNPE
T4 sequence (P30281 whole entry partner): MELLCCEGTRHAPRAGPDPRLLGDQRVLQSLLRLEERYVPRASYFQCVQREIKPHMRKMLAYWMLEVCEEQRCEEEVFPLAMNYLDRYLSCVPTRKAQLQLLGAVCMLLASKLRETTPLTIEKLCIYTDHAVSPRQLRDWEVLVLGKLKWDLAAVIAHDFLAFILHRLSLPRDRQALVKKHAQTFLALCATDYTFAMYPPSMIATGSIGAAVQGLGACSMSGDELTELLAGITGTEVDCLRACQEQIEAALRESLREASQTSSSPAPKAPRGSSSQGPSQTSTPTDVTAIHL
T1 sequence (P11802 whole entry, the tested form may be a part): as the sequence (P11802 whole entry) above
T1 sequence (P30281 1-264 partner limits assumed): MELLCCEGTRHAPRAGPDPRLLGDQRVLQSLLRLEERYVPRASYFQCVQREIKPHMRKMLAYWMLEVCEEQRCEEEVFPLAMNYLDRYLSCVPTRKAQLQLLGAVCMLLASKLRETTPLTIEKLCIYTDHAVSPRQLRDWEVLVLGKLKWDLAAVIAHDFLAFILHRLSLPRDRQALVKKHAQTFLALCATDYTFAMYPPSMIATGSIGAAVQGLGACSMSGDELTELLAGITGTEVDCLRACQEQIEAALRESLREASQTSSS
T2 sequence (P06493 whole entry): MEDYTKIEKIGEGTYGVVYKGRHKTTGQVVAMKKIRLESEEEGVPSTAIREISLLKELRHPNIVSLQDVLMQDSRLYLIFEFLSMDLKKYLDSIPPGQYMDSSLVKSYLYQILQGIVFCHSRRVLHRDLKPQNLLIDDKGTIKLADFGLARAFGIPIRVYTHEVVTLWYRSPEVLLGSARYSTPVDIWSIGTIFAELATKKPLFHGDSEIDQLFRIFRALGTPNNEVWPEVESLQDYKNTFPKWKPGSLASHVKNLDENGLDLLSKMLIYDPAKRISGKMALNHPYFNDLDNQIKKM
T2 sequence (P14635 whole entry partner): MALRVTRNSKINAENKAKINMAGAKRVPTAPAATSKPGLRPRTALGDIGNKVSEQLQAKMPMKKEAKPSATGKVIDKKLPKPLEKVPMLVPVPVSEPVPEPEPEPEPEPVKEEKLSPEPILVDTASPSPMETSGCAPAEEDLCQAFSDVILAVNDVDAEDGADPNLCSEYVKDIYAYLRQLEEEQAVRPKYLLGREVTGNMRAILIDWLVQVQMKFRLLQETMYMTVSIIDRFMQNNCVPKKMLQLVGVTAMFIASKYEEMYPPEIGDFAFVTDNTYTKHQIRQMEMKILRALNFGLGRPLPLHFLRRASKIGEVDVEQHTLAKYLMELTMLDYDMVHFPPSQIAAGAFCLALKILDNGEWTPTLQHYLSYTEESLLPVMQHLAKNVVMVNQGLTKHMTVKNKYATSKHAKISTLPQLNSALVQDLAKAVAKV

| SMILES | IC50 [2] [nM] | IC90 [2] [nM] | Ki [3] [nM] | IC50 [4] [nM] | IC90 [4] [nM] | Ki [5] [nM] | Ki [6] [nM] | Ki [7] [nM] | IC50 [1] [nM] | IC90 [1] [nM] | Inhibits pRb (ser 780) phosphorylation [8] | Inhibits pRb phosphorylation [9] |
| --- | --- | --- | --- | --- | --- | --- | --- | --- | --- | --- | --- | --- |
| Nc1nc(Nc2ccc(N3CCNCC3)cc2)sc1C(=O)c1c(F)cc(F)cc1F [J(3), [4-Amino-2-(4-piperazin-1-yl-phenylamino)-thiazol-5-yl]-(2,4,6-trifluoro-phenyl)-methanone] | 2900 | 5200 | 19 | 900 | 2800 | 2000 | 572 | 15 | 2200 | 4900 |  |  |
| COc1ccc(Nc2nc(N)c(C(=O)c3ccccc3C#N)s2)cc1 [F, 2-[4-Amino-2-(4-methoxy-phenylamino)-thiazole-5-carbonyl]-benzonitrile] | 1000 | 20000 |  | 1000 | 2600 | 200 | 350 | 40.7 | 1000 | 1600 | − | − |
| CC1(C)CN(c2ccc(Nc3nc(N)c(C(=O)c4c(F)cccc4F)s3)cc2)CCN1 [J(6), {4-Amino-2-[4-(3,3-dimethyl-piperazin-1-yl)-phenylamino]-thiazol-5-yl}-(2,6-difluoro-phenyl)-methanone] | 510 | 1300 | 8.1 | 260 | 600 | 511 | 548 |  | 470 | 770 |  |  |
| Cc1ccsc1C(=O)c1sc(Nc2ccc(N(C)CCN(C)C)cc2)nc1N [C(117), (4-Amino-2-{4-[(2-dimethylamino-ethyl)-methyl-amino]-phenylamino}-thiazol-5-yl)-(3-methyl-thiophen-2-yl)-methanone] | 900 | 1700 | 10 | 1800 | 2900 | 417 | 423 |  | 890 | 1500 |  |  |
| Nc1nc(Nc2ccc(S(N)(=O)=O)cc2)sc1C(=O)c1sc(Br)cc1Br [C(73), 4-[4-Amino-5-(3,5-dibromo-thiophene-2-carbonyl)-thiazol-2-ylamino]-benzenesulfonamide] | 4100 | 9500 |  | 1400 | 3400 | 20 | 6.8 | 6.3 | 1300 | 5000 | + | + |
| Nc1nc(Nc2ccc(S(N)(=O)=O)cc2)sc1C(=O)c1c(F)cc(F)cc1F [C(115), 4-[4-Amino-5-(2,4,6-trifluoro-benzoyl)-thiazol-2-yl-amino]-benzenesulfonamide] | 2700 | 5000 | 55 |  |  | 50 | 18 | 57 | 800 | 2200 |  |  |

Second part, led by results:

| IC50 [2] [nM] | IC90 [2] [nM] | Ki [3] [nM] | IC50 [4] [nM] | IC90 [4] [nM] | Ki [5] [nM] | Ki [6] [nM] | Ki [7] [nM] | SMILES | IC50 [1] [nM] | IC90 [1] [nM] | Inhibits pRb (ser 780) phosphorylation [8] | Inhibits pRb phosphorylation [9] |
| --- | --- | --- | --- | --- | --- | --- | --- | --- | --- | --- | --- | --- |
| 1300 | 2500 | 17 | 540 | 1600 | 680 | 611 |  | C[C@@H]1CN(c2ccc(Nc3nc(N)c(C(=O)c4c(F)cccc4F)s3)cc2)CCN1C [C(124), {4-Amino-2-[4-(3R,4-dimethyl-piperazin-1-yl)-phenylamino]-thiazol-5-yl}-(2,6-difluoro-phenyl)-methanone] | 980 | 1600 |  |  |
| 3400 | 6000 |  | 1300 | 3100 | 1410 | 1040 | 41 | Cc1cc([N+](=O)[O-])sc1C(=O)c1sc(Nc2ccc(N3CCN(C)CC3)cc2)nc1N [C(94), {4-Amino-2-[4-(4-methyl-piperazin-1-yl)-phenylamino]-thiazol-5-yl}-(3-methyl-5-nitro-thiophen-2-yl)-methanone] | 2200 | 5000 | + | + |
| 1200 | 2300 | 5.4 | 620 | 1800 | 650 | 602 |  | C[C@H]1CN(c2ccc(Nc3nc(N)c(C(=O)c4c(F)cccc4F)s3)cc2)CCN1C [C(125), {4-Amino-2-[4-(3S,4-dimethyl-piperazin-1-yl)-phenylamino]-thiazol-5-yl}-(2,6-difluoro-phenyl)-methanone] | 900 | 1500 |  |  |
